Results from patent US10472341B2, “Bicyclic tetrahydrothiazepine derivatives useful for the treatment of neoplastic and/or infectious diseases” (APEIRON BIOLOGICS AG, priority 2015, dated 2019).

Tested on: NK cells
Assay: NK cell stimulation by IL-2: IFN-gamma and TNF-alpha release
Format: cell-based, human
Details: for IFN-gamma / TNF-alpha: IL-2 stimulation
Description: Isolated NK cells were plated in Xvivo medium at 1.5*10^5 cells per in 96 well culture plates and stimulated with 50 ng/ml IL-2 (Aldesleukin) where indicated. Cytokine secretion was determined by ELISA, immune cell activation by flow cytometry (Beckman-Coulter Abs CD25-PC5, CD69-PC7 and acquisition on Beckman-Coulter Gallios) using 7-AAD exclusion as criterion for living cells. IL-2 is a key factor for survival, proliferation and activation of NK cells, thus linking adaptive immunity mediated by T cells with the innate immunity mediated by NK cells. Especially CD8 T cells release IL-2 locally at the site of antigen-encounter in the tumor, and thus support and activate NK cell anti-tumor functions. Compound example 67 has been chosen as an example. […] Thus, compounds have a unique potential to support the interlinked anti-tumor immunity of T and NK cells in the physiological context in vivo.

SMILES: CCCCNC(=O)c1ccc2c(c1)N(Cc1ccc(OC(F)(F)F)cc1)C(=O)[C@@H](N)CS2(=O)=O.Cl [Example 67, (3R)-3-amino-N-butyl-1,1,4-trioxo-5-{[4-(trifluoromethoxy)phenyl]methyl}-2,3,4,5-tetrahydro-1λ^6,5-benzothiazepine-7-carboxamide hydrochloride]
- IFN-gamma (0.03 μM): 0.71 ng/mL
- TNF-alpha (0.03 μM): 0.04 ng/mL
- IFN-gamma (0.1 μM): 0.72 ng/mL
- TNF-alpha (0.1 μM): 0.03 ng/mL
- IFN-gamma (0.3 μM): 1.00 ng/mL
- TNF-alpha (0.3 μM): 0.06 ng/mL
- IFN-gamma (1 μM): 1.23 ng/mL
- TNF-alpha (1 μM): 0.09 ng/mL
- IFN-gamma (3 μM): 1.50 ng/mL
- TNF-alpha (3 μM): 0.10 ng/mL
- IFN-gamma (10 μM): 1.40 ng/mL
- TNF-alpha (10 μM): 0.12 ng/mL
- IFN-gamma (30 μM): 1.22 ng/mL
- TNF-alpha (30 μM): 0.14 ng/mL
- responsiveness of NK cells upon IL-2 activation (release of IFN-gamma and TNF-alpha) (NK cells, IL-2): can directly enhance the responsiveness of NK cells upon IL-2 activation
